Data reported in ChEMBL document CHEMBL3352807, “Design, synthesis and anti-mycobacterial activity of 1,2,3,5-tetrasubstituted pyrrolyl-N-acetic acid derivatives” (Eur J Med Chem, 2014).
≈ marks a conversion by molar mass, not a printed value.

Columns and labels:
[1] = Cytotoxicity against HEK293T cells at 50 uM after 72 hrs by MTT assay; assay type: cell-based, HEK-293T; conditions: human
Pseudomonas aeruginosa = test: Antibacterial activity against Pseudomonas aeruginosa; assay type: functional
[2] = Selectivity index, ratio of IC50 for HEK293T cells to MIC for Mycobacterium tuberculosis H37Rv ATCC 27294; assay type: toxicity, cell-based, HEK-293T; conditions: human, read-out: Selectivity Index
[3] = system: Mycobacterium tuberculosis; test: Antimycobacterial activity against Mycobacterium tuberculosis H37Rv ATCC 27294 after 28 days by agar dilution method; assay type: functional; conditions: H37Rv ATCC 27294, 672 h
HEK-293T = test: Cytotoxicity against HEK293T cells after 72 hrs by MTT assay; assay type: cell-based; conditions: Homo sapiens
[4] = system: Mycolicibacterium smegmatis; test: Antimycobacterial activity against Mycobacterium smegmatis assessed as growth inhibition after 32 hrs by spectrophotometry; assay type: functional

SMILES: CC(C)CC(C(=O)O)n1c(-c2ccccc2)cc(-c2ccccc2)c1-c1ccco1 (stereo not given)
- inhibition at 72 h, 50 µM [1]: 82.4%
- MIC (Pseudomonas aeruginosa): 376 µM (≈ 150 µg/mL)
- selectivity ratio [2]: 6.38
- MIC [3]: 7.83 µM (≈ 3.13 µg/mL)
- IC50 (HEK-293T): < 50 µM

SMILES: Cc1ccc(-c2c(-c3ccccc3)cc(-c3ccccc3)n2CC(=O)O)cc1
- inhibition at 72 h, 50 µM [1]: 78.2%
- MIC (Pseudomonas aeruginosa): 409 µM (≈ 150 µg/mL)
- selectivity ratio [2]: 0.86
- MIC [3]: 58 µM (≈ 21.3 µg/mL)
- IC50 (HEK-293T): < 50 µM

SMILES: CCc1nnc(NC(=O)Cn2c(-c3ccccc3)cc(-c3ccco3)c2-c2ccco2)s1
- inhibition at 72 h, 50 µM [1]: 90.2%
- MIC (Pseudomonas aeruginosa): 338 µM (≈ 150 µg/mL)
- selectivity ratio [2]: 3.55
- MIC [3]: 14.1 µM (≈ 6.26 µg/mL)
- GI50 [4]: 15.2 µM
- IC50 (HEK-293T): < 50 µM

SMILES: O=C(Cn1c(-c2ccccc2)cc(-c2ccccc2)c1-c1ccco1)Nc1ccccn1
- inhibition at 72 h, 50 µM [1]: 69.3%
- MIC (Pseudomonas aeruginosa): 358 µM (≈ 150 µg/mL)
- selectivity ratio [2]: 1.68
- MIC [3]: 29.8 µM (≈ 12.5 µg/mL)
- GI50 [4]: 24.8 µM
- IC50 (HEK-293T): < 50 µM

SMILES: O=C(Cn1c(-c2ccccc2)cc(-c2ccccc2)c1-c1ccccc1)Nc1ccccn1
- inhibition at 72 h, 50 µM [1]: 62.9%
- MIC (Pseudomonas aeruginosa): 175 µM (≈ 75.1 µg/mL)
- selectivity ratio [2]: 6.86
- MIC [3]: 7.28 µM (≈ 3.13 µg/mL)
- GI50 [4]: 26.7 µM
- IC50 (HEK-293T): < 50 µM

SMILES: CC(C)C(C(=O)O)n1c(-c2ccccc2)cc(-c2ccco2)c1-c1ccco1 (stereo not given)
- MIC (Pseudomonas aeruginosa): 400 µM (≈ 150 µg/mL)
- MIC [3]: 66.7 µM (≈ 25 µg/mL)

SMILES: CCc1nnc(NC(=O)Cn2c(-c3ccccc3)cc(-c3ccccc3)c2-c2ccc(Br)cc2)s1
- MIC (Pseudomonas aeruginosa): 277 µM (≈ 150 µg/mL)
- MIC [3]: 46.1 µM (≈ 25.1 µg/mL)
- GI50 [4]: 30.6 µM

SMILES: CC[C@@H](CO)NCCN[C@@H](CC)CO [ETHAMBUTOL]
- MIC [3]: 27.5 µM (≈ 5.62 µg/mL)

SMILES: O=C(Cn1c(-c2ccccc2)cc(-c2ccccc2)c1-c1ccc(Br)cc1)Nc1nc2ccccc2s1
- inhibition at 72 h, 50 µM [1]: 86.7%
- MIC (Pseudomonas aeruginosa): 266 µM (≈ 150 µg/mL)
- selectivity ratio [2]: 4.51
- MIC [3]: 11.1 µM (≈ 6.25 µg/mL)
- GI50 [4]: 48.3 µM
- IC50 (HEK-293T): < 50 µM

SMILES: O=C(Cn1c(-c2ccccc2)cc(-c2ccccc2)c1-c1ccccc1)Nc1nc2ccccc2s1
- inhibition at 72 h, 50 µM [1]: 55%
- MIC (Pseudomonas aeruginosa): 309 µM (≈ 150 µg/mL)
- selectivity ratio [2]: 0.76
- MIC [3]: 6.44 µM (≈ 3.13 µg/mL)
- GI50 [4]: 28.9 µM
- IC50 (HEK-293T): < 50 µM

SMILES: O=C(Cn1c(-c2ccc3ccccc3c2)cc(-c2ccccc2)c1-c1ccco1)Nc1nc2ccccc2s1
- inhibition at 72 h, 50 µM [1]: 38.3%
- MIC (Pseudomonas aeruginosa): 286 µM (≈ 150 µg/mL)
- selectivity ratio [2]: > 16.8
- MIC [3]: 2.97 µM (≈ 1.56 µg/mL)
- IC50 (HEK-293T): < 50 µM

SMILES: O=C(Cn1c(-c2ccccc2)cc(-c2ccco2)c1-c1ccco1)Nc1nc2ccccc2s1
- inhibition at 72 h, 50 µM [1]: 65.1%
- MIC (Pseudomonas aeruginosa): 354 µM (≈ 165 µg/mL)
- selectivity ratio [2]: 1.7
- MIC [3]: 29.5 µM (≈ 13.7 µg/mL)
- GI50 [4]: 14 µM
- IC50 (HEK-293T): < 50 µM

SMILES: O=C(O)Cn1c(-c2cccc3ccccc23)cc(-c2ccccc2)c1-c1ccco1
- inhibition at 72 h, 50 µM [1]: 79.5%
- MIC (Pseudomonas aeruginosa): 47.7 µM (≈ 18.8 µg/mL)
- selectivity ratio [2]: 1.57
- MIC [3]: 31.8 µM (≈ 12.5 µg/mL)
- IC50 (HEK-293T): < 50 µM

SMILES: CCc1nnc(NC(=O)Cn2c(-c3ccccc3)cc(-c3ccccc3)c2-c2ccccc2)s1
- inhibition at 72 h, 50 µM [1]: 49.3%
- MIC (Pseudomonas aeruginosa): 323 µM (≈ 150 µg/mL)
- selectivity ratio [2]: 3.71
- MIC [3]: 13.5 µM (≈ 6.26 µg/mL)
- GI50 [4]: 20.4 µM
- IC50 (HEK-293T): < 50 µM

SMILES: CN[C@@H]1[C@H](O[C@H]2[C@H](O[C@H]3[C@H](O)[C@@H](O)[C@H](N=C(N)N)[C@@H](O)[C@@H]3N=C(N)N)O[C@@H](C)[C@]2(O)C=O)O[C@@H](CO)[C@H](O)[C@H]1O [STREPTOMYCIN]
- MIC (Pseudomonas aeruginosa): 2.68 µM (≈ 1.56 µg/mL)

SMILES: NNC(=O)c1ccncc1 [ISONIAZID]
- MIC [3]: 5.25 µM (≈ 0.72 µg/mL)
- GI50 [4]: 41.6 µM

SMILES: O=C(Cn1c(-c2ccccc2)cc(-c2ccccc2)c1-c1ccco1)NCc1ccccc1
- inhibition at 72 h, 50 µM [1]: 72.4%
- MIC (Pseudomonas aeruginosa): 347 µM (≈ 150 µg/mL)
- selectivity ratio [2]: 6.91
- MIC [3]: 7.23 µM (≈ 3.13 µg/mL)
- GI50 [4]: 52.4 µM
- IC50 (HEK-293T): < 50 µM

SMILES: O=C(Cn1c(-c2ccccc2)cc(-c2ccccc2)c1-c1ccco1)Nc1nc2ccccc2s1
- inhibition at 72 h, 50 µM [1]: 89.8%
- MIC (Pseudomonas aeruginosa): 316 µM (≈ 150 µg/mL)
- selectivity ratio [2]: 3.8
- MIC [3]: 13.2 µM (≈ 6.26 µg/mL)
- GI50 [4]: 44.6 µM
- IC50 (HEK-293T): < 50 µM

SMILES: O=C(O)Cn1c(-c2ccccc2)cc(-c2ccccc2)c1-c1ccccc1
- inhibition at 72 h, 50 µM [1]: 97%
- MIC (Pseudomonas aeruginosa): 47.7 µM (≈ 16.9 µg/mL)
- selectivity ratio [2]: 1.47
- MIC [3]: 34.1 µM (≈ 12 µg/mL)
- IC50 (HEK-293T): < 50 µM

SMILES: CC(C)C(C(=O)O)n1c(-c2ccccc2)cc(-c2ccccc2)c1-c1ccco1 (stereo not given)
- MIC (Pseudomonas aeruginosa): 97.4 µM (≈ 37.5 µg/mL)
- MIC [3]: 130 µM (≈ 50.1 µg/mL)

SMILES: CCc1nnc(NC(=O)Cn2c(-c3ccccc3)cc(-c3cccc4ccccc34)c2-c2ccco2)s1
- inhibition at 72 h, 50 µM [1]: 59.7%
- MIC (Pseudomonas aeruginosa): 298 µM (≈ 150 µg/mL)
- selectivity ratio [2]: 16.1
- MIC [3]: 3.1 µM (≈ 1.56 µg/mL)
- GI50 [4]: 66.8 µM
- IC50 (HEK-293T): < 50 µM

SMILES: O=C(Cn1c(-c2ccccc2)cc(-c2ccccc2)c1-c1ccco1)NCCc1c[nH]c2ccccc12
- inhibition at 72 h, 50 µM [1]: 62.5%
- MIC (Pseudomonas aeruginosa): 77.3 µM (≈ 37.5 µg/mL)
- selectivity ratio [2]: 7.76
- MIC [3]: 6.44 µM (≈ 3.13 µg/mL)
- GI50 [4]: 26.8 µM
- IC50 (HEK-293T): < 50 µM

SMILES: O=C(O)Cn1c(-c2ccccc2)cc(-c2ccco2)c1-c1ccco1
- MIC (Pseudomonas aeruginosa): 113 µM (≈ 37.5 µg/mL)
- MIC [3]: 75.1 µM (≈ 25 µg/mL)

SMILES: O=C(Cn1c(-c2ccccc2)cc(-c2cccc3ccccc23)c1-c1ccco1)Nc1nc2ccccc2s1
- inhibition at 72 h, 50 µM [1]: 68.8%
- MIC (Pseudomonas aeruginosa): 286 µM (≈ 150 µg/mL)
- selectivity ratio [2]: 16.8
- MIC [3]: 2.97 µM (≈ 1.56 µg/mL)
- GI50 [4]: 61.4 µM
- IC50 (HEK-293T): < 50 µM

SMILES: O=C(O)Cn1c(-c2ccccc2)cc(-c2ccccc2)c1-c1ccc(Cl)cc1
- inhibition at 72 h, 50 µM [1]: 37.4%
- MIC (Pseudomonas aeruginosa): 388 µM (≈ 150 µg/mL)
- selectivity ratio [2]: 1.55
- MIC [3]: 64.6 µM (≈ 25.1 µg/mL)
- IC50 (HEK-293T): < 50 µM

SMILES: O=C(Cn1c(-c2ccc3ccccc3c2)cc(-c2ccccc2)c1-c1ccco1)NCc1ccccc1
- MIC (Pseudomonas aeruginosa): 311 µM (≈ 150 µg/mL)
- MIC [3]: 51.9 µM (≈ 25 µg/mL)

SMILES: O=C(Cn1c(-c2ccccc2)cc(-c2ccccc2)c1-c1ccc(Br)cc1)Nc1ccccn1
- inhibition at 72 h, 50 µM [1]: 75%
- MIC (Pseudomonas aeruginosa): 295 µM (≈ 150 µg/mL)
- selectivity ratio [2]: 8.13
- MIC [3]: 6.15 µM (≈ 3.13 µg/mL)
- GI50 [4]: 45.9 µM
- IC50 (HEK-293T): < 50 µM

SMILES: O=C(O)Cn1c(-c2ccccc2)cc(-c2ccccc2)c1-c1ccc(Br)cc1
- MIC (Pseudomonas aeruginosa): 348 µM (≈ 150 µg/mL)
- MIC [3]: 32.3 µM (≈ 14 µg/mL)

SMILES: CO[C@H]1/C=C/O[C@@]2(C)Oc3c(C)c(O)c4c(O)c(c(/C=N/N5CCN(C)CC5)c(O)c4c3C2=O)NC(=O)/C(C)=C\C=C\[C@H](C)[C@H](O)[C@@H](C)[C@@H](O)[C@@H](C)[C@H](OC(C)=O)[C@@H]1C [RIFAMPIN]
- MIC [3]: 0.29 µM (≈ 0.239 µg/mL)
- GI50 [4]: 1.22 µM

SMILES: CC1(C)S[C@@H]2[C@H](NC(=O)Cc3ccccc3)C(=O)N2[C@H]1C(=O)O [PENICILLIN G]
- MIC (Pseudomonas aeruginosa): 37.4 µM (≈ 12.5 µg/mL)

SMILES: CCc1nnc(NC(=O)Cn2c(-c3ccc4ccccc4c3)cc(-c3ccccc3)c2-c2ccco2)s1
- inhibition at 72 h, 50 µM [1]: 83.6%
- MIC (Pseudomonas aeruginosa): 298 µM (≈ 150 µg/mL)
- selectivity ratio [2]: 2.02
- MIC [3]: 24.8 µM (≈ 12.5 µg/mL)
- GI50 [4]: 73.9 µM
- IC50 (HEK-293T): < 50 µM

SMILES: O=C(O)Cn1c(-c2ccccc2)cc(-c2ccccc2)c1-c1ccco1
- inhibition at 72 h, 50 µM [1]: 114%
- MIC (Pseudomonas aeruginosa): 54.7 µM (≈ 18.8 µg/mL)
- selectivity ratio [2]: 2.74
- MIC [3]: 18.2 µM (≈ 6.26 µg/mL)
- IC50 (HEK-293T): < 50 µM

SMILES: CCc1nnc(NC(=O)Cn2c(-c3ccccc3)cc(-c3ccccc3)c2-c2ccco2)s1
- inhibition at 72 h, 50 µM [1]: 81%
- MIC (Pseudomonas aeruginosa): 331 µM (≈ 151 µg/mL)
- selectivity ratio [2]: 1.81
- MIC [3]: 27.6 µM (≈ 12.5 µg/mL)
- GI50 [4]: 23.3 µM
- IC50 (HEK-293T): < 50 µM

SMILES: O=C(O)Cn1c(-c2ccccc2)cc(-c2cccc3ccccc23)c1-c1ccco1
- inhibition at 72 h, 50 µM [1]: 32%
- MIC (Pseudomonas aeruginosa): 13.3 µM (≈ 5.22 µg/mL)
- selectivity ratio [2]: > 6.29
- MIC [3]: 7.95 µM (≈ 3.13 µg/mL)
- IC50 (HEK-293T): < 50 µM
